{"source": "patent US20250161271A1", "about": "“PHARMACEUTICAL COMPOSITION FOR TREATING CANCER, COMPRISING ANTICANCER AGENT AND NOVEL COMPOUND HAVING INHIBITORY ACTIVITY WITH RESPECT TO PROSTAGLANDIN E2 RECEPTORS” (KANAPH THERAPEUTICS INC., priority 2022, published 2025)", "key": {"[1]": {"experiment": "Body weight of mice in MC38 tumor model", "assay_type": "in vivo, mouse", "details": "C57B/6 mice", "description": "(§1) MC38 cells were subcultured in a cell incubator (CO2 incubator) under 37° C., 5% CO2 conditions using DMEM medium containing 10% FBS (fetal bovine serum). For the tumor animal model, MC38 cells were resuspended at a concentration of 1×10^6 cells/100 μL, and 100 μL per each mouse was transplanted into the subcutaneous region of the right flank of 6 to 7 week-old C57B/6 mice (Shanghai Lingchang Biotechnology Co., Ltd, Shanghai) to prepare a MC38 tumor model.\n(§2) Drug administration was carried out for 18 days from the day after the test groups were grouped into a group treated with A02 (Example 1b), a group treated with an anti-PD-1 antibody, an immune checkpoint inhibitor, and a group treated with A02 and an anti-PD-1 antibody in combination. The anti-PD-1 antibody (BioXcell, Cat #BP0146) was diluted in PBS and intraperitoneally administered once every 3 days at a concentration of 200 μg/mouse. A02 was used as an excipient by adding Tween 80 to 0.5% methycellulose (40000 cp) aqueous solution until it reached 0.2%, and A02 was suspended as an excipient and orally administered daily at a concentration of 150 mg/kg."}, "MC38 cells": {"test_system": "MC38 cells", "experiment": "Anticancer efficacy in mouse-derived colorectal carcinoma MC38 tumor model (tumor size)", "assay_type": "in vivo", "description": "Experimental Example 2.2. Evaluation of Anticancer Efficacy of Combination Administration in Mouse-Derived Colorectal Carcinoma Tumor Model: MC38\nas §1\nThe tumor size was calculated by measuring in the same manner as in Experimental Example 2.1.\nWhen the tumor size reached an average of 70 to 100 mm^3, the mice were randomly divided into groups for the evaluation of drug efficacy (average tumor size=91 mm^3). The drug efficacy was evaluated by substituting the measured tumor size into Equation 2 of Experimental Example 2.1 to calculate and compare the tumor growth inhibitory ability between groups.\nas §2"}, "hEP4": {"target": "T1, hEP4 (Homo sapiens, UniProt P35408)", "T1 construct": "expressed in transfected cells; host or cells: HEK293", "experiment": "hEP4 cAMP assay", "assay_type": "cell-based", "details": "HEK293 cells overexpressing hEP4; PGE2 20 nM as agonist; median of multiple experiments; read-out: IC50 (nM) EP4 cAMP", "description": "Experimental Example 1.2: hEP4 cAMP Assay\nHEK293 cells overexpressing hEP4 were cultured in growth medium (GM:MEM (Gibco™, 11095080)/10% HI FBS (Gibco™, 10082147)/1% penicillin/streptomycin). Before the experiment, the growth medium was removed, and starvation medium (HBSS (Gibco™ 14025076)/10% GM) was added. Thereafter, the cells were incubated for 4 hours. HEK293 cells harboring hEP4 were detached from the culture dish with a non-enzymatic cell dissociation buffer (Gibco™, 15040066). The cells were resuspended in assay buffer (AB:HBSS, 0.1% BSA stabilizer, 0.5 mM IBMX, 5 mM HEPES).\n(§3) 1,000 cells in 5 μL of AB were seeded per well in a 384 well plate (Corning®, 3570), and stock solutions of test compounds were prepared at a concentration of 1 mM in DMSO and serially diluted in DMSO to the concentration required for the inhibition dose response curve (test concentration range of […]-0.001 nM). […]\n5 μL of each donor (Eu-cAMP tracer) and acceptor (ULight-anti-cAMP) was added, and the plate was incubated in the dark for 1 hour at room temperature, and then a Varioskan LUX multimode microplate reader was used to obtain the results (excitation: 334 nm, emission: 615 and 665 nm). The resulting FRET fluorescence value (665 nm/615 nm*10000) was converted and then calculated as a percentage of cAMP compared to the DMSO control value. […]"}, "hEP2": {"target": "T2, hEP2 (Homo sapiens, UniProt P43116)", "T2 construct": "expressed in transfected cells; host or cells: HEK293", "experiment": "hEP2 cAMP assay", "assay_type": "cell-based", "details": "HEK293 cells overexpressing hEP2; PGE2 400 pM as agonist; median of multiple experiments; read-out: IC50 (nM) EP2 cAMP", "description": "Experimental Example 1.1: hEP2 cAMP Assay\nHEK293 cells overexpressing hEP2 were cultured in growth medium (GM:MEM (Gibco™, 11095080)/10% HI FBS (Gibco™, 10082147)/1% penicillin/streptomycin). Before the experiment, the growth medium was removed, and starvation medium (HBSS (Gibco™ 14025076)/10% GM) was added. Thereafter, the cells were incubated for 4 hours. The HEK293 cells harboring hEP2 were detached from the culture dish with a non-enzymatic cell dissociation buffer (Gibco™, 15040066). The cells were resuspended in assay buffer (AB:HBSS, 0.1% BSA stabilizer, 0.5 mM IBMX, 5 mM HEPES).\nas §3\n5 μL of each donor (Eu-cAMP tracer) and acceptor (ULight-anti-cAMP) was added, and the plate was incubated in the dark for 1 hour at room temperature, and then a Varioskan LUX multimode microplate reader was used to obtain the results (excitation: 334 nm, emission: 615 and 665 nm). The resulting FRET fluorescence value (665 nm/615 nm*10000) was converted and then calculated as a percentage of cAMP relative to the DMSO control value. […]"}, "CT26 cells": {"test_system": "CT26 cells", "experiment": "Anticancer efficacy in mouse-derived colorectal carcinoma CT26 tumor model (tumor size)", "assay_type": "in vivo", "description": "Experimental Example 2.1. Evaluation of Anticancer Efficacy of Combination Administration in Mouse-Derived Colorectal Carcinoma Tumor Model: CT26\n(§4) CT26 cells were subcultured and maintained in a cell incubator (CO2 incubator) under 37° C., […] conditions using RPMI-1640 medium containing 10% FBS (fetal bovine serum). For the tumor animal model, CT26 cells were resuspended at a concentration of […] cells/100 μL, and 100 μL per each mouse was transplanted into the subcutaneous region of the right flank of 6 to 7 week-old BALB/c mice (Shanghai Lingchang Biotechnology Co., Ltd, Shanghai) to prepare a CT26 tumor model.\nThe tumor size was calculated by measuring the short axis and the long axis using a vernier caliper and substituting them into Equation 1 below.\ntumor size (volume, mm^3)=(short axis, mm)^2×(long axis, mm)×0.5 [Equation 1]\nWhen the tumor size reached an average of 70 to 100 mm^3, the mice were randomly divided into groups for the evaluation of drug efficacy (average tumor size per group=79 mm^3). The drug efficacy was evaluated by substituting the measured tumor size into Equation 2 to calculate and compare the tumor growth inhibitory ability between groups.\ntumor growth inhibitory ability=[{(control group tumor size at the time of measurement,C)−(control group tumor size at the start of administration,C0)}−{(test group tumor size at the time of measurement,T)−(test group tumor size at the start of administration,T0)}]/{(control group tumor size at the time of measurement,C)−(control group tumor size at the start of administration,C0)} [Equation 2]\nDrug administration was carried out for 12 days from the day after the test groups were grouped into a group treated with A01 (Example 34b), a group treated with an anti-PD-1 antibody, an immune checkpoint inhibitor, and a group treated with A01 and an anti-PD-1 antibody in combination. The anti-PD-1 antibody (BioXcell, Cat #BP0146) was diluted in PBS and intraperitoneally administered once every 3 days at a concentration of 200 μg/mouse. […]"}, "[2]": {"experiment": "Body weight of mice in CT26 tumor model", "assay_type": "in vivo, mouse", "details": "BALB/c mice", "description": "as §4\nas §2, with “12” for “18”, “A01” for “A02”, “34b),” for “1b),”"}}, "data": [{"molecule": "Cc1sc(C)c(C(=O)NC2CC3(C2)CC(C(=O)O)C3)c1Cc1ccc(-c2ccccc2)cc1", "note": "(stereo not shown) [Example A02]", "values": [{"measurement": "body weight at end point of the test", "setting": "[1]; 18 days administration, A02 150 mg/kg oral daily, anti-PD-1 antibody 200 μg/mouse i.p. once every 3 days", "value": "22.0 ± 0.4", "unit": "g"}, {"measurement": "body weight at start point of the test", "setting": "[1]; start of drug administration", "value": "19.1 ± 0.2", "unit": "g"}, {"measurement": "tumor growth inhibition rate compared to control group", "setting": "MC38 cells; 18 days administration, A02 150 mg/kg oral daily, anti-PD-1 antibody 200 μg/mouse i.p. once every 3 days, Equation 2", "value": 32.7, "unit": "%"}, {"measurement": "tumor size at end point of the test", "setting": "MC38 cells; C57B/6 mice, 18 days administration, A02 150 mg/kg oral daily, anti-PD-1 antibody 200 μg/mouse i.p. once every 3 days", "value": "1711.0±236.4", "unit": "mm^3"}, {"measurement": "tumor size at start point of the test", "setting": "MC38 cells; C57B/6 mice, start of drug administration", "value": "91.5±3.1", "unit": "mm^3"}]}, {"molecule": "O=C(N[C@]12C[C@](C(=O)O)(C1)C2)c1csc2ccn(Cc3ccc(-c4ccccc4)cc3)c12", "note": "[Example 87, 3-(4-([1,1′-biphenyl]-4-ylmethyl)-4H-thieno[3,2-b]pyrrole-3-carboxamido)bicyclo[1.1.1]pentane-1-carboxylic acid]", "values": [{"measurement": "IC50", "setting": "hEP4", "value": "> 10000", "unit": "nM"}, {"measurement": "IC50", "setting": "hEP2", "value": "> 10000", "unit": "nM"}]}, {"molecule": "COc1cc(-c2ccc(Cc3c(C)sc(C)c3C(=O)NC3CC4(C3)CC(C(=O)O)C4)cc2)cc(N2CCC2=O)c1", "note": "[Example 63, (2R, 4R, 6R)-6-(4-((3′-methoxy-5′-(2-oxoazetidin-1-yl)-[1,1′-biphenyl]-4-yl)methyl)-2,5-dimethylthiophene-3-carboxamido)spiro[3.3]heptane-2-carboxylic acid]", "values": [{"measurement": "IC50", "setting": "hEP4", "value": "≤ 500", "unit": "nM"}]}, {"molecule": "COc1cc(F)cc(-c2ccc(Cc3c(C)sc(C)c3C(=O)NC3CC4(C3)CC(C(=O)O)C4)cc2)c1", "note": "(stereo not shown) [Example A01]", "values": [{"measurement": "tumor growth inhibition rate compared to control group", "setting": "CT26 cells; 12 days administration, A01 150 mg/kg oral daily, anti-PD-1 antibody 200 μg/mouse i.p. once every 3 days, Equation 2", "value": 38.5, "unit": "%"}, {"measurement": "tumor size at end point of the test", "setting": "CT26 cells; BALB/c mice, 12 days administration, A01 150 mg/kg oral daily, anti-PD-1 antibody 200 μg/mouse i.p. once every 3 days", "value": "1092.6±237.5", "unit": "mm^3"}, {"measurement": "tumor size at start point of the test", "setting": "CT26 cells; BALB/c mice, start of drug administration", "value": "79.4±2.3", "unit": "mm^3"}, {"measurement": "body weight at end point of the test", "setting": "[2]; 12 days administration, A01 150 mg/kg oral daily, anti-PD-1 antibody 200 μg/mouse i.p. once every 3 days", "value": "22.2 ± 0.6", "unit": "g"}, {"measurement": "body weight at start point of the test", "setting": "[2]; start of drug administration", "value": "20.4 ± 0.4", "unit": "g"}]}]}
